# Experimental data as given in article PMC10615251 (Biochemistry, 2023).
# What was measured:
# [1] = tested on: T1, UDP-α-D-glucuronate 6-decarboxylase (HS:15.19); test: anion exchange chromatography of UDP-xylose formed, […] nm; type: biochemical, Campylobacter jejuni; settings: 50 mM phosphate pH 6.5
# T1 construct: gene HS15.19
# [2] = tested on: T2, UDP-α-D-glucose 6-dehydrogenase (HS:15.18); settings: read-out: KNAD (apparent); 1.0 mM UDP-D-glucose, 50 mM triethanolamine pH 8.7, 25 °C
# T2 construct: gene HS15.18
# [3] = tested on: T3, UDP-α-D-xylose 4-epimerase (HS:15.17); settings: read-out: KUDP-xyl (apparent); 50 mM HEPES/KOH pH 8.0, 25 °C
# T3 construct: gene HS15.17
structure (smiles),measurement,setting,value
"O=C(O)[C@H]1O[C@H](OP(=O)(O)OP(=O)(O)OC[C@H]2O[C@@H](n3ccc(=O)[nH]c3=O)[C@H](O)[C@@H]2O)[C@H](O)[C@@H](O)[C@@H]1O [compound 4, UDP-α-D-glucuronate]",Km,"[1]; read-out: KUDP-glc (apparent), 0.30 mM NAD+",250 ± 30 µM
NC(=O)c1ccc[n+]([C@@H]2O[C@H](COP(=O)(O)OP(=O)(O)OC[C@H]3O[C@@H](n4cnc5c(N)ncnc54)[C@H](O)[C@@H]3O)[C@@H](O)[C@H]2O)c1 [NAD^+],"Ka (activation constant, concentration at 1⁄2 saturation)",[1]; 2.5 mM UDP-D-glucuronate,17 ± 5 µM
same,Km,[2],120 ± 10 µM
"O=c1ccn([C@@H]2O[C@H](COP(=O)(O)OP(=O)(O)O[C@H]3OC[C@@H](O)[C@H](O)[C@H]3O)[C@@H](O)[C@H]2O)c(=O)[nH]1 [compound 5, UDP-α-D-xylose]",Km,[3],125 ± 13 µM
